From PMC9090415, “Discovery of small molecule inhibitors of Plasmodium falciparum apicoplast DNA polymerase” (Journal of Enzyme Inhibition and Medicinal Chemistry, 2022)

Molecular target: P. falciparum apicoplast DNA polymerase (Pf-apPOL) (Plasmodium falciparum, UniProt Q8ILY1)
Test: Fluorescence-based high-throughput DNA polymerase assay (molecular beacon), primary screen and dose-response
Assay type: biochemical
Settings: for DNA Pol: 90 min, 10 µM; for % inhibition apPOL 180' 2.5 / % inhibition apPOL 180' 5 / % inhibition apPOL 180' 10 / % inhibition apPOL 180' 20 / % inhibition apPOL 180' 40 / % inhibition apPOL 180' 80: read at 180'
Outline: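 Single-point screening used 10 µM compound with 20 nM polymerase, 20 nM hairpin substrate and 6 µM dNTPs for 90 min at 25 °C. Confirmatory titrations (2.5–80 µM) followed fluorescence at three times, and IC50 was derived from a fit including a cooperativity term n.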

[1] = first dose-response set, concentration 80

P. falciparum apicoplast DNA polymerase (Pf-apPOL), sequence (Q8ILY1 entry or part of it): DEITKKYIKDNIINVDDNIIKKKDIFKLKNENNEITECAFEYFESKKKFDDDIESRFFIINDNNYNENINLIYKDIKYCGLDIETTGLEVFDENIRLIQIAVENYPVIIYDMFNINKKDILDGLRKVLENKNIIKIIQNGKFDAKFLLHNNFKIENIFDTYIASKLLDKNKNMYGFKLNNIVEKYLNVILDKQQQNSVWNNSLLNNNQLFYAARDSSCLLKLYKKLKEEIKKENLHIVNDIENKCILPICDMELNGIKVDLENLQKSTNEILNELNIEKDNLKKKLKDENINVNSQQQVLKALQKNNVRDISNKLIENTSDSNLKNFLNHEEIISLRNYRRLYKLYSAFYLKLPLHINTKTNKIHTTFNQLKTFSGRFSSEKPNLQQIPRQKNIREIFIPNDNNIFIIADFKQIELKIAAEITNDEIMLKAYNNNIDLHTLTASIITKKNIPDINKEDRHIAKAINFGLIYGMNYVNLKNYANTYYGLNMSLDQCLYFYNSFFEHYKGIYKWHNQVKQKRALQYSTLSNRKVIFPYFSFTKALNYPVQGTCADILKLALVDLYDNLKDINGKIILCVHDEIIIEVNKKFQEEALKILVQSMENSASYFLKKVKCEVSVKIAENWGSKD

COc1ccc(/C=C/c2cc(C(=O)O)c3ccccc3n2)cc1 [Molecule 5, COc1ccc(cc1)/C=C/c1nc2ccccc2c(c1)C(=O)O]
DNA Pol (186 hits, DNA Pol (screen value), unit not given): 61 | DNA Pol ('DNA Pol' (screen value), unit not given): 61 | % inhibition Apo pol 10' 2.5 (DRC-1, read at 10', concentration 2.5): 43.4862% | % inhibition Apo pol 10' 5 (DRC-1, read at 10', concentration 5): 53.3879% | % inhibition Apo pol 10' 10 (DRC-1, read at 10', concentration 10): 61.7052% | % inhibition Apo pol 10' 20 (DRC-1, read at 10', concentration 20): 65.8277% | % inhibition Apo pol 10' 40 (DRC-1, read at 10', concentration 40): 71.2771% | % inhibition Apo pol 10' 80 (DRC-1, read at 10', concentration 80): 72.4327% | % inhibition Apol 90' 2.5 (DRC-1, read at 90', concentration 2.5): 35.7188% | % inhibition Apol 90' 5 (DRC-1, read at 90', concentration 5): 44.8099% | % inhibition Apol 90' 10 (DRC-1, read at 90', concentration 10): 55.1819% | % inhibition Apol 90' 20 (DRC-1, read at 90', concentration 20): 60.94% | % inhibition Apol 90' 40 (DRC-1, read at 90', concentration 40): 68.5014% | % inhibition Apol 90' 80 (DRC-1, read at 90', concentration 80): 67.8921% | % inhibition apPOL 180' 2.5 (DRC-1, concentration 2.5): 28.4361% | % inhibition apPOL 180' 5 (DRC-1, concentration 5): 35.945% | % inhibition apPOL 180' 10 (DRC-1, concentration 10): 46.8104% | % inhibition apPOL 180' 20 (DRC-1, concentration 20): 54.1695% | % inhibition apPOL 180' 40 (DRC-1, concentration 40): 63.6204% | % inhibition apPOL 180' 80 (DRC-1, concentration 80): 63.471% | % inhibition Apo pol 5' (DRC-2, concentration 20): 38% | % inhibition Apol 40' (DRC-2, concentration 2.5): 46% | % inhibition Apol 40' (DRC-2, concentration 5): 36% | % inhibition Apol 40' (DRC-2, concentration 20): 46% | % inhibition Apol 40' (DRC-2, concentration 80): 38% | % inhibition ApPOL 90' (DRC-2, concentration 2.5): 45% | % inhibition ApPOL 90' (DRC-2, concentration 5): 36% | % inhibition ApPOL 90' (DRC-2, concentration 20): 46% | % inhibition apPOL 180' (DRC-2, concentration 20): 38% | % inhibition apPOL 180' (DRC-2, concentration 80): 45% | % inhibition Apo pol 5' 2.5 (DRC-2, read at 5', concentration 2.5): 37% | % inhibition Apo pol 5' 5 (DRC-2, read at 5', concentration 5): 31% | % inhibition Apo pol 5' 10 (DRC-2, read at 5', concentration 10): 8.56% | % inhibition Apo pol 5' 20 (DRC-2, read at 5', concentration 20): 38% | % inhibition Apo pol 5' 40 (DRC-2, read at 5', concentration 40): 43% | % inhibition Apo pol 5' 80 (DRC-2, read at 5', concentration 80): 14% | % inhibition Apol 40' 2.5 (DRC-2, read at 40', concentration 2.5): 46% | % inhibition Apol 40' 5 (DRC-2, read at 40', concentration 5): 36% | % inhibition Apol 40' 10 (DRC-2, read at 40', concentration 10): -66% | % inhibition Apol 40' 20 (DRC-2, read at 40', concentration 20): 46% | % inhibition Apol 40' 40 (DRC-2, read at 40', concentration 40): 55% | % inhibition Apol 40' 80 (DRC-2, read at 40', concentration 80): 38% | % inhibition ApPOL 90' 2.5 (DRC-2, read at 90', concentration 2.5): 45% | % inhibition ApPOL 90' 5 (DRC-2, read at 90', concentration 5): 36% | % inhibition ApPOL 90' 10 (DRC-2, read at 90', concentration 10): -90% | % inhibition ApPOL 90' 20 (DRC-2, read at 90', concentration 20): 46% | % inhibition ApPOL 90' 40 (DRC-2, read at 90', concentration 40): 56% | % inhibition ApPOL 90' 80 (DRC-2, read at 90', concentration 80): 44% | % inhibition apPOL 180' 2.5 (DRC-2, concentration 2.5): 34% | % inhibition apPOL 180' 5 (DRC-2, concentration 5): 25% | % inhibition apPOL 180' 10 (DRC-2, concentration 10): -139% | % inhibition apPOL 180' 20 (DRC-2, concentration 20): 38% | % inhibition apPOL 180' 40 (DRC-2, concentration 40): 50% | % inhibition apPOL 180' 80 (DRC-2, concentration 80): 45%

Cc1ccc(NC(=O)C2CCN(C(=O)c3cc4ccsc4[nH]3)CC2)c(Br)c1 [Molecule 14, O=C(C1CCN(CC1)C(=O)c1cc2c([nH]1)scc2)Nc1ccc(cc1Br)C]
DNA Pol ("DNA Pol" of the 186 hits list (screen value)): 67 | % inhibition Apo pol 10' (DRC-1, concentration 2.5): 11% | % inhibition Apo pol 10' (DRC-1, concentration 5): 36% | % inhibition Apo pol 10' (DRC-1, concentration 10): 68% | % inhibition Apo pol 10' (DRC-1, concentration 20): 88% | % inhibition Apo pol 10' (DRC-1, concentration 40): 87% | % inhibition Apo pol 10' (DRC-1, concentration 80): 89% | % inhibition Apol 90' (DRC-1, concentration 2.5): 6% | % inhibition Apol 90' (DRC-1, concentration 5): 22% | % inhibition Apol 90' (DRC-1, concentration 10): 48% | % inhibition Apol 90' (DRC-1, concentration 20): 76% | % inhibition Apol 90' (DRC-1, concentration 40): 77% | % inhibition Apol 90' (DRC-1, concentration 80): 84% | % inhibition apPOL 180' (DRC-1, concentration 2.5): 5% | % inhibition apPOL 180' (DRC-1, concentration 5): 12% | % inhibition apPOL 180' (DRC-1, concentration 10): 30% | % inhibition apPOL 180' (DRC-1, concentration 20): 61% | % inhibition apPOL 180' (DRC-1, concentration 40): 63% | % inhibition apPOL 180' (DRC-1, concentration 80): 75% | % inhibition Apo pol 5' (DRC-2, concentration 2.5): 11% | % inhibition Apo pol 5' (DRC-2, concentration 5): 22% | % inhibition Apo pol 5' (DRC-2, concentration 10): 43% | % inhibition Apo pol 5' (DRC-2, concentration 20): 50% | % inhibition Apo pol 5' (DRC-2, concentration 40): 54% | % inhibition Apo pol 5' (DRC-2, concentration 80): 48% | % inhibition Apol 40' (DRC-2, concentration 2.5): 9% | % inhibition Apol 40' (DRC-2, concentration 5): 22% | % inhibition Apol 40' (DRC-2, concentration 10): 49% | % inhibition Apol 40' (DRC-2, concentration 20): 62% | % inhibition Apol 40' (DRC-2, concentration 40): 68% | % inhibition Apol 40' (DRC-2, concentration 80): 67% | % inhibition ApPOL 90' (DRC-2, concentration 2.5): 8.49% | % inhibition ApPOL 90' (DRC-2, concentration 5): 18% | % inhibition ApPOL 90' (DRC-2, concentration 10): 45% | % inhibition ApPOL 90' (DRC-2, concentration 20): 61% | % inhibition ApPOL 90' (DRC-2, concentration 40): 68% | % inhibition ApPOL 90' (DRC-2, concentration 80): 70% | % inhibition apPOL 180' (DRC-2, concentration 2.5): 2.63% | % inhibition apPOL 180' (DRC-2, concentration 5): 12% | % inhibition apPOL 180' (DRC-2, concentration 10): 34% | % inhibition apPOL 180' (DRC-2, concentration 20): 52% | % inhibition apPOL 180' (DRC-2, concentration 40): 64% | % inhibition apPOL 180' (DRC-2, concentration 80): 69% | % inhibition Apo pol 10' (first DRC, concentration 2.5): 11% | % inhibition Apo pol 10' (first DRC, concentration 10): 68% | % inhibition Apol 90' (first DRC, concentration 5): 22% | % inhibition Apol 90' (first DRC, concentration 10): 48% | % inhibition apPOL 180' (first DRC, concentration 5): 12% | % inhibition apPOL 180' (first DRC, concentration 20): 61% | DNA Pol (primary screen value, DNA Pol): 67

COc1ccc(-c2cc3nc4c(c(=O)n3[nH]2)CCN(C(=O)CCc2ccccc2)C4)cc1 [Molecule 17, COc1ccc(cc1)c1[nH]n2c(c1)nc1c(c2=O)CCN(C1)C(=O)CCc1ccccc1]
DNA Pol ('DNA Pol' of the 186 hits list (primary screen value)): 52 | DNA Pol (DNA Pol (primary screen value)): 52 | % inhibition Apo pol 10' (DRC-1, concentration 2.5): 3% | % inhibition Apo pol 10' (DRC-1, concentration 5): 30% | % inhibition Apo pol 10' (DRC-1, concentration 10): 64% | % inhibition Apo pol 10' (DRC-1, concentration 20): 81% | % inhibition Apo pol 10' (DRC-1, concentration 40): 82% | % inhibition Apo pol 10' (DRC-1, concentration 80): 78% | % inhibition Apol 90' (DRC-1, concentration 2.5): -3.33% | % inhibition Apol 90' (DRC-1, concentration 5): 18% | % inhibition Apol 90' (DRC-1, concentration 10): 49% | % inhibition Apol 90' (DRC-1, concentration 20): 69% | % inhibition Apol 90' (DRC-1, concentration 40): 72% | % inhibition Apol 90' (DRC-1, concentration 80): 78% | % inhibition apPOL 180' (DRC-1, concentration 2.5): -7% | % inhibition apPOL 180' (DRC-1, concentration 5): 7.5% | % inhibition apPOL 180' (DRC-1, concentration 10): 34% | % inhibition apPOL 180' (DRC-1, concentration 20): 55% | % inhibition apPOL 180' (DRC-1, concentration 40): 58% | % inhibition apPOL 180' (DRC-1, concentration 80): 70% | % inhibition Apo pol 5' (DRC-2, concentration 2.5): -5.33% | % inhibition Apo pol 5' (DRC-2, concentration 5): 12% | % inhibition Apo pol 5' (DRC-2, concentration 10): 31% | % inhibition Apo pol 5' (DRC-2, concentration 20): 43% | % inhibition Apo pol 5' (DRC-2, concentration 40): 44% | % inhibition Apo pol 5' (DRC-2, concentration 80): 38% | % inhibition Apol 40' (DRC-2, concentration 2.5): -5.29% | % inhibition Apol 40' (DRC-2, concentration 5): 14% | % inhibition Apol 40' (DRC-2, concentration 10): 35% | % inhibition Apol 40' (DRC-2, concentration 20): 54% | % inhibition Apol 40' (DRC-2, concentration 40): 57% | % inhibition Apol 40' (DRC-2, concentration 80): 58% | % inhibition ApPOL 90' (DRC-2, concentration 2.5): -4.53% | % inhibition ApPOL 90' (DRC-2, concentration 5): 13% | % inhibition ApPOL 90' (DRC-2, concentration 10): 33% | % inhibition ApPOL 90' (DRC-2, concentration 20): 53% | % inhibition ApPOL 90' (DRC-2, concentration 40): 57% | % inhibition ApPOL 90' (DRC-2, concentration 80): 61% | % inhibition apPOL 180' (DRC-2, concentration 2.5): -5% | % inhibition apPOL 180' (DRC-2, concentration 5): 6% | % inhibition apPOL 180' (DRC-2, concentration 10): 24% | % inhibition apPOL 180' (DRC-2, concentration 20): 44% | % inhibition apPOL 180' (DRC-2, concentration 40): 50% | % inhibition apPOL 180' (DRC-2, concentration 80): 58% | % inhibition Apo pol 10' [1]: 78% | % inhibition Apol 90' [1]: 78% | % inhibition apPOL 180' (first dose-response set, concentration 40): 58%
